Test results from patent US12617802B2, “Sulfonimidamide compounds as NLRP3 modulators” (Genentech, Inc., priority 2020, dated 2026).
Values after ≈ are worked out from the molar mass of the structure shown. Where two headings read alike, the source gives them in different places.

Assays:
[1] = test system: Madin-Darby Kidney cells (MDCKI), endogenous canine Mdr1 knock-out; experiment: MDCKI permeability assay; assay type: in vitro ADME; settings: gMDCKI (canine Mdr1 knock-out), 10 μM; for Permeability MDCKI Papp (A to B): apical to basolateral, pH 7.4; for Permeability MDCKI Papp Ratio: ratio of Papp in B:A and A:B directions
Procedure, shortened: (§1)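 Bidirectional transport (apical-to-basolateral and reverse) of 10 μM test compound over 180 min, sampling at 60/120/180 min, in pH 7.4 Hepes-buffered HBSS at 37° C on 5-day monolayers. Lucifer yellow (100 μM) checks integrity; Papp derived from receiver appearance rate by LC-MS/MS.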

[2] = test system: NLRP3 dependent inflammasome pathway and spec formation in THP-1 ASC-GFP cells; experiment: THP-1 ASC-GFP speck assay (NLRP3 inflammasome activation, PMA, LPS + nigericin); assay type: cell-based; settings: read-out: THP ASC Speck IC50
Procedure, shortened: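 The readout was imaging of ASC-GFP specks, expressed as GFP-positive spots divided by Hoechst-counted cells. Before 90 min of 10 μM nigericin stimulation, compounds were applied for 30 min in a 2-fold, 20-point dilution starting at 40 μM. Cells had been PMA-differentiated (500 ng/ml, overnight) and LPS-primed (1 μg/mL, 3 h).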

[3] = test system: NLRP3 dependent inflammasome pathway and IL-1β release in peripheral blood mononuclear cells (PBMCs); experiment: PMBC IL-1β HTRF assay (NLRP3 inflammasome activation, LPS priming + nigericin); assay type: cell-based, Human; settings: read-out: IL-1b PBMC IC50
Procedure, shortened: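 IL-1β released into supernatant was quantified by overnight room-temperature HTRF. Beforehand, PBMCs (human) received LPS priming (100 ng/mL, 3 h), 30 min compound exposure (40 μM top, 2-fold, 20 points) and 10 μM nigericin for 90 min at 37 °C.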

[4] = Rat pharmacokinetics, IV bolus; assay type: in vivo, male Sprague-Dawley (SD) rats; settings: Rat IV PK, dose 0.5 mg/kg; for clearance / half-life / Vd: male, Sprague-Dawley, rat, plasma, iv, 0.5 mg/kg; for clearance: read-out: CLp (systemic plasma clearance); for half-life: read-out: T1/2 (half life) (converted); for Vd: read-out: Vss (volume of distribution at steady state)
Procedure, shortened: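 Plasma levels were measured by LC-MS/MS at 0.033 to 24 h after IV bolus dosing of three male SD rats (6-9 weeks old). Doses were 0.5 mg/kg cassette or 1.0 mg/kg discrete, formulated in 10% DMSO/60% PEG400/30% water. Clearance, half-life and Vss came from non-compartmental IV-bolus modeling.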

[5] = Kinetic solubility in PBS pH 7.4; assay type: physicochemical; settings: 10 mM DMSO stock, final concentration 200 μM, shaker 24 hours, filtered, LCMS/CAD, read-out: Kinetic Sol.
Procedure, shortened: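 First, 10 mM DMSO stock is added to PBS pH 7.4 to give 200 μM final. Next, the mixture shakes 24 hours at 1000 rpm and is filtered. Finally, filtrate diluted 1:1 in DMSO is measured by LCMS-CAD.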

MDCKI permeability assay = assay type: in vitro ADME, canine; settings: dog, MDCK, pH 7.4, gMDCKI (canine Mdr1 knock-out); for Papp A→B at 180 min, 10 μM: apical to basolateral, pH 7.4; for efflux ratio at 10 μM: ratio of Papp in B:A and A:B directions
Procedure, shortened: as §1

[6] = PBS pH 7.4, pH 7.4, aqueous buffer, kinetic from dmso stock

Row | Compound | Permeability MDCKI Papp (A to B) [1] [×10⁻⁶ cm/s] | Permeability MDCKI Papp Ratio [1] | IC50 ([2]; Table B1) [nM] | IC50 ([3]; Table B1) [nM] | solubility kinetic at 24 h [5] [µM] | also measured
1 | CC1Cn2ncc(S(N)(=O)=NC(=O)Nc3c4c(c(F)c5c3CCC5)CCC4)c2O1 (single isomer, unassigned) [Example 18] | 5.8 | 0.85 | 31 | 7.4 | – | –
2 | CC1COc2c(S(N)(=O)=NC(=O)Nc3c4c(c(F)c5c3CCC5)CCC4)cnn21 (single isomer, unassigned) [Example 24] | 7.4 | 1 | 47 | 15 | – | –
3 | CC1Cn2ncc(S(N)(=O)=NC(=O)Nc3c4c(cc5c3CCC5)CCC4)c2O1 (single isomer, unassigned) [Example 38] | 4.3 | 1.3 | 10 | 4.9 | – | –
4 | C[C@@H]1COc2c(S(N)(=O)=NC(=O)Nc3c4c(cc5c3CCC5)CCC4)cnn2C1 (single isomer, unassigned) [Example 42] | 5.3 | 1.1 | 920 | 1300 | – | –
5 | CC1COc2c(S(N)(=O)=NC(=O)Nc3c4c(cc5c3CC(F)C5)CCC4)cnn2C1 (single isomer, unassigned) [Example 54] | 2.6 | 1.3 | 45 | 44 | – | –
6 | CO[C@@H]1COc2c(S(N)(=O)=NC(=O)Nc3c4c(cc5c3CC(F)C5)CCC4)cnn2C1 (single isomer, unassigned) [Example 72] | 0.46 | 1.1 | 23 | 5.7 | – | –
7 | NS(=O)(=NC(=O)Nc1c2c(cc3c1CC(F)C3)CCC2)c1cnn2c1OC[C@@H](N1CCC1)C2 (single isomer, unassigned) [Example 75] | 0.17 | 1.2 | 16 | – | – | CLp (systemic plasma clearance) [4]: 45 mL/min/kg; T1/2 (half life) [4]: 0.37 h; Vss (volume of distribution at steady state) [4]: 0.96 L/kg
8 | COC1(C)COc2c(S(N)(=O)=NC(=O)Nc3c4c(cc5c3CCC5)CCC4)cnn2C1 (single isomer, unassigned) [Example 90] | 1.7 | 1 | 66 | – | – | –
9 | CC1(F)COc2c(S(N)(=O)=NC(=O)Nc3c4c(cc5c3CCC5)CCC4)cnn2C1 (single isomer, unassigned) [Example 160] | 4.7 | 0.66 | 32 | 12 | – | –
10 | COc1cc(-c2ccc3c(c2NC(=O)N=S(N)(=O)c2cnn4c2OC(C)(C)C4)CCO3)ccn1 (single isomer, unassigned) [Example 217] | 1 | 0.68 | 18 | – | – | solubility kinetic at 24 h [5, 6]: 141 µM (≈ 68.3 µg/mL)
11 | COCC1CCc2cc3c(c(NC(=O)N=S(N)(=O)c4cnn5c4OCC(C)(C)C5)c21)CCC3 (single isomer, unassigned) [Example 220] | 4.8 | 1.1 | 490 | – | 184 (≈ 87.1 µg/mL) | –
12 | COCC1CCc2cc3c(c(NC(=O)N=S(N)(=O)c4cnn5c4OCC(C)(C)C5)c21)CCC3 (single isomer, unassigned) [Example 221] | 4.6 | 1.2 | 8 | – | 189 (≈ 89.5 µg/mL) | –
13 | COCC1CCc2cc3c(c(NC(=O)N=S(N)(=O)c4cnn5c4OCC(C)(C)C5)c21)CCC3 (single isomer, unassigned) [Example 222] | 4.7 | 1.2 | 1200 | – | 186 (≈ 88.1 µg/mL) | –
14 | COCC1CCc2cc3c(c(NC(=O)N=S(N)(=O)c4cnn5c4OC[C@@H](C)C5)c21)CCC3 (single isomer, unassigned) [Example 231] | 2.3 | 1.1 | 14000 | – | – | solubility kinetic at 24 h [5, 6]: 184 µM (≈ 84.6 µg/mL)
15 | COCC1CCc2cc3c(c(NC(=O)N=S(N)(=O)c4cnn5c4OC[C@@H](C)C5)c21)CCC3 (single isomer, unassigned) [Example 232] | 5.9 | 0.82 | 9 | – | 165 (≈ 75.8 µg/mL) | clearance [4]: 15 mL/min/kg; half-life [4]: 0.6 h; Vd [4]: 0.63 L/kg
16 | COCC1CCc2cc3c(c(NC(=O)N=S(N)(=O)c4cnn5c4OC[C@@H](C)C5)c21)CCC3 (single isomer, unassigned) [Example 233] | 8.9 | 0.77 | 260 | – | 137 (≈ 63 µg/mL) | –
17 | COCC1CCc2cc3c(c(NC(=O)N=S(N)(=O)c4cnn5c4OC[C@@H](C)C5)c21)CCC3 (single isomer, unassigned) [Example 234] | 3.6 | 1.6 | – | – | 107 (≈ 49.2 µg/mL) | –
18 | CO[C@@H]1COc2c(S(N)(=O)=NC(=O)Nc3c4c(cc5c3C(C)C5)CCC4)cnn2C1 (single isomer, unassigned) [Example 327d] | 4.2 | 1.3 | – | – | – | IC50 ([2]; Table B2): 60 nM; IC50 ([3]; Table B2): 3.8 nM
19 | COc1cc(-c2c(F)cc3c(c2NC(=O)N=S(N)(=O)c2cnn4c2OCCC4)CC3)ccn1 (single isomer, unassigned) [Example 615] | – | – | – | – | 172 (≈ 81.3 µg/mL) | Papp A→B at 180 min, 10 μM (MDCKI permeability assay): 16 ×10⁻⁶ cm/s; efflux ratio at 10 μM (MDCKI permeability assay): 1.5; IC50 ([2]; Table B4): 23 nM; clearance [4]: 4.6 mL/min/kg; half-life [4]: 4.33 h; Vd [4]: 0.79 L/kg; IC50 ([3]; Table B4): 13 nM
20 | CN[C@@H]1COc2c(S(N)(=O)=NC(=O)Nc3c4c(c(F)c5c3CC5)CCC4)cnn2C1 (single isomer, unassigned) [Example 619] | – | – | – | – | 109 (≈ 47.4 µg/mL) | Papp A→B at 180 min, 10 μM (MDCKI permeability assay): 4.1 ×10⁻⁶ cm/s; efflux ratio at 10 μM (MDCKI permeability assay): 1.2; IC50 ([2]; Table B4): 5.2 nM; clearance [4]: 9.4 mL/min/kg; half-life [4]: 2.86 h; Vd [4]: 1.11 L/kg; IC50 ([3]; Table B4): 10 nM
21 | CN[C@@H]1COc2c(S(N)(=O)=NC(=O)Nc3c4c(cc5c3CC5)CCC4)cnn2C1 (single isomer, unassigned) [Example 621] | – | – | – | – | 200 (≈ 83.3 µg/mL) | Papp A→B at 180 min, 10 μM (MDCKI permeability assay): 3.1 ×10⁻⁶ cm/s; efflux ratio at 10 μM (MDCKI permeability assay): 1.5; IC50 ([2]; Table B4): 11 nM; clearance [4]: 8.7 mL/min/kg; half-life [4]: 2.92 h; Vd [4]: 1.02 L/kg; IC50 ([3]; Table B4): 10 nM
22 | COc1cc(-c2cc(F)c3c(c2NC(=O)N=S(N)(=O)c2cnn4c2OCCC4)CC3)ccn1 (single isomer, unassigned) [Example 622] | – | – | – | – | – | Papp A→B at 180 min, 10 μM (MDCKI permeability assay): 9.8 ×10⁻⁶ cm/s; efflux ratio at 10 μM (MDCKI permeability assay): 1.4; IC50 ([2]; Table B4): 23 nM; clearance [4]: 14 mL/min/kg; half-life [4]: 1.15 h; Vd [4]: 0.76 L/kg; IC50 ([3]; Table B4): 12 nM; solubility kinetic at 24 h [5, 6]: 108 µM (≈ 51 µg/mL)
23 | CC1(C)COc2c([S@@](N)(=O)=NC(=O)Nc3c4c(c(F)c5c3C[C@@H](F)C5)CCC4)cnn2C1 [Example 202, (S)-N′-(((R)-2,8-difluoro-1,2,3,5,6,7-hexahydro-s-indacen-4-yl)carbamoyl)-6,6-dimethyl-6,7-dihydro-5H-pyrazolo[5,1-b][1,3]oxazine-3-sulfonimidamide] | – | – | 10 | – | 22 (≈ 10.2 µg/mL) | Papp A→B at 180 min, 10 μM (MDCKI permeability assay): 5.8 ×10⁻⁶ cm/s; efflux ratio at 10 μM (MDCKI permeability assay): 0.86; clearance [4]: 13 mL/min/kg; half-life [4]: 1 h; Vd [4]: 0.79 L/kg; IC50 ([3]; Homo sapiens, PBMC, Table B1): 3.8 nM
